Test results: US20200121677A1, “SUBSTITUTED 6,7-DIHYDROPYRAZOLO[1,5-a]PYRAZINES AS NEGATIVE ALLOSTERIC MODULATORS OF MGLUR2 RECEPTORS” (Janssen Pharmaceutica NV, priority 2014, published 2020)

Legend:
[1] = test system: rats; assay: Reversal of the effect of the mGluR2 PAM JNJ-42153605-induced inhibition of scopolamine-induced hyperlocomotion; assay type: in vivo, rat; conditions: for ED50 SCOP JNJ-42153605 (Reversal of the effect of JNJ 42153605 on scopolamine-induced hyperlocomotion) / ED50: rats, route PO, criterion total distance >1500 cm; for ED50: Rattus norvegicus, read-out: ED50 SCOP JNJ-42153605 (Reversal of the effect of JNJ 42153605 on scopolamine-induced hyperlocomotion)
Experimental: 2) Reversal of the Effect of the mGluR2 PAM JNJ-42153605-Induced Inhibition of Scopolamine-Induced Hyperlocomotion
Motor activity was measured in microprocessor-based motor activity arenas (closed gray PVC cylinders with a height of 39 cm and a diameter of 31 cm). Each arena was placed on an infrared LED (8×8 LEDs) lit box (white PVC squared box; 40×40 cm^2; height 12.5 cm. An infrared-sensitive tube camera and a white light source were mounted to the ceiling above the observation chamber to track the animal. The total distance traveled (cm) was recorded and analyzed using the Noldus Ethovision XT Video Tracking System (Version 7.0.418; Noldus, Wageningen, The Netherlands). The intensity of the light within the activity cages (measured in the centre at the level of the floor) ranged between 4 and 8 LUX.
The rats were pretreated with test compound or vehicle at 60 min before the start of the activity recordings and placed into individual cages. The rats were challenged with JNJ-42153605 (3-(cyclopropylmethyl)-7-(4-phenylpiperidin-1-yl)-8-(trifluoromethyl)[1,2,4]triazolo[4,3-a]pyridine; WO2010/130424; Cid et al. J. Med. Chem. 2012, 55, 8770-8789) (20 mg/kg, i.v.) 30 min before the start of the activity recording combined with scopolamine (0.16 mg/kg, i.v.) just before the start of the activity measurements. Immediately after the injection of scopolamine, the rats were placed into the activity monitors and total distance traveled over the first 30 min was measured.
For reversal of the inhibitory effect of JNJ-42153605 on the scopolamine-induced hyperlocomotion, the following all-or-none criteria were adopted: (1) reversal: total distance >1500 cm.

[2] = molecular target: human mGlu2 receptor (Homo sapiens, UniProt Q14416); assay: [35S]GTPγS binding assay, mGluR2 negative allosteric modulation (membranes from CHO cells transfected with human mGlu2 receptor, glutamate ~EC80 60 μM); conditions: for GTPγS - hmGluR2 anGT pIC50: membranes with human mGlu2 receptor; for GTPγS - hmGluR2 anGT pIC50 / IC50: glutamate ~EC80 (60 μM), pIC50 = -log IC50 (M); for GTPγS - hmGluR2 anGT Emax: relative maximal effect: maximal % inhibition relative to the control glutamate response; for IC50: GTPγS - hmGluR2 anGT pIC50, membranes with human mGlu2 receptor; for Emax: read-out: GTPγS - hmGluR2 anGT Emax, relative maximal effect: maximal % inhibition relative to the control glutamate response;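 on all read-outs here: membranes preincubated 30 min at 30 °C with compound plus glutamate, then [35S]GTPγS (0.1 nM) incorporation measured over another 30 min at 30 °C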
Sequence of human mGlu2 receptor (Q14416 19-872): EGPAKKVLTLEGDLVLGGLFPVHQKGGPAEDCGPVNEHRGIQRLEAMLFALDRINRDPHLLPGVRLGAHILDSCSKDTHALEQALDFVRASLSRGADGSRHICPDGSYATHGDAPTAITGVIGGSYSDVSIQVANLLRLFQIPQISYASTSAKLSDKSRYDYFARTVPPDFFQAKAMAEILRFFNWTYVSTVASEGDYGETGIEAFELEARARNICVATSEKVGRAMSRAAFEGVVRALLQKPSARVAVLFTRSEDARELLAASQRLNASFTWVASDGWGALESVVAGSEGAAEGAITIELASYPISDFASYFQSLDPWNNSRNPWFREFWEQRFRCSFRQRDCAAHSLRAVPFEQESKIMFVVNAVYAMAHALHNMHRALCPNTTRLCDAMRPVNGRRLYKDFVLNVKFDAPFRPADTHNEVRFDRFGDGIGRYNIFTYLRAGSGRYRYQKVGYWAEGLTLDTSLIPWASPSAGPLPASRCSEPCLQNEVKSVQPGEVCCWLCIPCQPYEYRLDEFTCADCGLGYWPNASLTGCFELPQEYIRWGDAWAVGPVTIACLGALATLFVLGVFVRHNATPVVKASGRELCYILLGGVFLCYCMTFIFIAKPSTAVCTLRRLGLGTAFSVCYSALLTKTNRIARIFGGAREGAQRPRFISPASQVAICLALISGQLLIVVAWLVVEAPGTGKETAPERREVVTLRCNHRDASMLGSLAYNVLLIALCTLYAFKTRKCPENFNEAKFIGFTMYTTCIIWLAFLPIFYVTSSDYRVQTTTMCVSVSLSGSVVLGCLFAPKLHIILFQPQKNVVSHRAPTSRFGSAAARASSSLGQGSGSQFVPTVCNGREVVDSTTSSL

[3] = historical solvent-pretreated control rats, first 30 min, JNJ-42153605 20 mg/kg i.v., scopolamine 0.16 mg/kg i.v.

SMILES | melting point | IC50 [2] | Emax [2] | ED50 [1] | other results
COc1cccc(NC(=O)c2cnn3c2C(=O)N(c2ccc(C(F)(F)F)cc2)C[C@@H]3C)n1 [compound 105] |  |  |  |  | ED50 SCOP JNJ-42153605 (Reversal of the effect of JNJ 42153605 on scopolamine-induced hyperlocomotion) [1]: >2.5 mg/kg; GTPγS - hmGluR2 anGT pIC50 [2]: 8.21; GTPγS - hmGluR2 anGT Emax [2]: 108%
C[C@H]1CN(c2ccc(C(F)(F)F)cc2)C(=O)c2c(C(=O)Nc3cnccc3CO)cnn21 [compound 147] | 212.57 °C | 5.37e-08 M | 103% | > 0.63 mg/kg | 
Cc1cc(N2C[C@H](C)n3ncc(C(=O)Nc4cnccn4)c3C2=O)ccc1C(F)(F)F [compound 112] |  | 1.12e-09 M | 106% | 0.2 mg/kg | 
Cc1cc(N2C[C@H](C)n3ncc(C(=O)Nc4cnccn4)c3C2=O)ccc1Cl [compound 161] | 233.4 °C | 2.82e-09 M | 108% | > 0.63 mg/kg | 
COc1cc(N2C[C@H](C)n3ncc(C(=O)Nc4cnccc4C)c3C2=O)ccc1C(F)(F)F [compound 32] | 243.4 °C | 3.47e-09 M | 111% | > 0.63 mg/kg | 
COCC1CN(c2ccc(C(F)(F)F)c(Cl)c2)C(=O)c2c(C(=O)Nc3cccnc3)cnn21 (single isomer, unassigned) [compound 156] |  |  |  |  | ED50 SCOP JNJ-42153605 (Reversal of the effect of JNJ 42153605 on scopolamine-induced hyperlocomotion) [1]: 0.20 mg/kg; GTPγS - hmGluR2 anGT pIC50 [2]: 8.77; GTPγS - hmGluR2 anGT Emax [2]: 107%
Cc1c(F)cncc1NC(=O)c1cnn2c1C(=O)N(c1ccc(C(F)(F)F)c(Cl)c1)C[C@@H]2C [compound 133, (7S)-5-[3-chloro-4-(trifluoromethyl)phenyl]-N-(5-fluoro-4-methyl-3-pyridyl)-7-methyl-4-oxo-6,7-dihydropyrazolo[1,5-a]pyrazine-3-carboxamide] | 167.78 °C | 9.12e-10 M | 105% | > 0.63 mg/kg | 
C[C@H]1CN(c2ccc(OC(F)(F)F)c(Cl)c2)C(=O)c2c(C(=O)Nc3cccnc3)cnn21 [compound 152] | 145.36 °C | 1.05e-09 M | 108% | 0.08 mg/kg | 
CN1[C@@H]2C[C@@H](OC(=O)[C@H](CO)c3ccccc3)C[C@H]1[C@@H]1O[C@@H]12 [Scopolamine, scopolamine] |  |  |  |  | Total distance traveled >1500 cm (%) [1, 3]: 100%; Total distance traveled >4400 cm (%) [1, 3]: 95.8%; Total distance traveled, Median (cm) [1, 3]: 7246 cm
COCC1CN(c2ccc(C(F)(F)F)cc2)C(=O)c2c(C(=O)Nc3cccnc3)cnn21 (single isomer, unassigned) [compound 158] |  |  |  |  | ED50 SCOP JNJ-42153605 (Reversal of the effect of JNJ 42153605 on scopolamine-induced hyperlocomotion) [1]: >0.63 mg/kg; GTPγS - hmGluR2 anGT pIC50 [2]: 8.48; GTPγS - hmGluR2 anGT Emax [2]: 108%
COc1cncc(NC(=O)c2cnn3c2C(=O)N(c2ccc(Cl)c(Cl)c2)C[C@@H]3C)c1 [compound 29] |  |  |  |  | ED50 SCOP JNJ-42153605 (Reversal of the effect of JNJ 42153605 on scopolamine-induced hyperlocomotion) [1]: >0.63 mg/kg; GTPγS - hmGluR2 anGT pIC50 [2]: 8.75; GTPγS - hmGluR2 anGT Emax [2]: 107%
C[C@H]1CN(c2ccc(C(F)(F)F)c(F)c2)C(=O)c2c(C(=O)Nc3ccc(F)cn3)cnn21 [compound 78] | 183.36 °C | 1.35e-08 M | 106% | > 0.63 mg/kg | 
C[C@H]1CN(c2ccc(C(F)(F)F)c(Cl)c2)C(=O)c2c(C(=O)Nc3ccc(F)cn3)cnn21 [compound 108] | 212.88 °C | 2.82e-09 M | 104% | > 0.63 mg/kg | 
Cc1cc(N2C[C@H](C)n3ncc(C(=O)Nc4ccc(F)cn4)c3C2=O)ccc1C(F)(F)F [compound 110] |  |  |  |  | ED50 SCOP JNJ-42153605 (Reversal of the effect of JNJ 42153605 on scopolamine-induced hyperlocomotion) [1]: >0.63 mg/kg; GTPγS - hmGluR2 anGT pIC50 [2]: 8.3; GTPγS - hmGluR2 anGT Emax [2]: 107%
COCC1CN(c2ccc(C(F)(F)F)cc2)C(=O)c2c(C(=O)Nc3cnccn3)cnn21 (single isomer, unassigned) [compound 154] |  |  |  |  | ED50 SCOP JNJ-42153605 (Reversal of the effect of JNJ 42153605 on scopolamine-induced hyperlocomotion) [1]: 0.63 mg/kg; GTPγS - hmGluR2 anGT pIC50 [2]: 8.31; GTPγS - hmGluR2 anGT Emax [2]: 113%
C[C@H]1CN(c2ccc(C(F)(F)F)c(Cl)c2)C(=O)c2c(C(=O)Nc3cnccn3)cnn21 [compound 106] |  | 1.15e-09 M | 111% | 0.32 mg/kg | 
Cc1cncc(NC(=O)c2cnn3c2C(=O)N(c2ccc(Cl)c(Cl)c2)C[C@@H]3C)c1 [compound 28] |  |  |  |  | ED50 SCOP JNJ-42153605 (Reversal of the effect of JNJ 42153605 on scopolamine-induced hyperlocomotion) [1]: >0.63 mg/kg; GTPγS - hmGluR2 anGT pIC50 [2]: 9.06; GTPγS - hmGluR2 anGT Emax [2]: 107%
COCc1cc(N2C[C@H](C)n3ncc(C(=O)Nc4ccnc(C)c4)c3C2=O)ccc1C(F)(F)F [compound 95] |  | 5.5e-09 M | 112% | > 2.5 mg/kg | 
C[C@H]1CN(c2ccc(C(F)(F)F)cc2)C(=O)c2c(C(=O)Nc3cncc(F)n3)cnn21 [compound 145] | 209.5 °C | 1.23e-09 M | 126% |  | 
C[C@H]1CN(c2ccc(C(F)(F)F)cc2)C(=O)c2c(C(=O)Nc3cncc(CO)c3)cnn21 [compound 148, (7S)—N-[5-(hydroxymethyl)pyridin-3-yl]-7-methyl-4-oxo-5-[4-(trifluoromethyl)phenyl]-4,5,6,7-tetrahydropyrazolo[1,5-a]pyrazine-3-carboxamide] | 150.83 °C | 1.86e-08 M | 105% |  | 
Cc1c(F)cncc1NC(=O)c1cnn2c1C(=O)N(c1ccc(C(F)(F)F)c(F)c1)C[C@@H]2C [compound 131] | 186.35 °C | 2.95e-09 M | 110% |  | 
C[C@H]1CN(c2ccc(C(F)(F)F)cc2)C(=O)c2c(C(=O)NC3COC3)cnn21 [compound 72] | 108.6 °C | 2.75e-07 M | 111% |  | 
COc1cccc(NC(=O)c2cnn3c2C(=O)N(c2ccc(C(F)(F)F)c(OC)n2)C[C@@H]3C)c1 [compound 119, (7S)—N-(3-Methoxyphenyl)-5-[6-methoxy-5-(trifluoromethyl)-2-pyridyl]-7-methyl-4-oxo-6,7-dihydropyrazolo[1,5-a]pyrazine-3-carboxamide] | 194.51 °C | 7.76e-09 M | 111% |  | 

The next lines start with results.

melting point | IC50 [2] | Emax [2] | SMILES | ED50 [1] | other results
121.8 °C | 2.29e-09 M | 105% | Cc1cc(NC(=O)c2cnn3c2C(=O)N(c2ccc(C(F)(F)F)c(C)c2)C[C@@H]3C)ccn1 [compound 86] | 1.26 mg/kg | 
152.64 °C | 2.69e-09 M | 115% | C[C@H]1CN(c2ccc(C(F)(F)F)cc2)C(=O)c2c(C(=O)Nc3ccnc(CF)c3)cnn21 [compound 151] | > 0.63 mg/kg | 
179.56 °C | 3.63e-09 M | 107% | C[C@H]1CN(c2ccc(Cl)c(Cl)c2)C(=O)c2c(C(=O)Nc3ccc(F)cn3)cnn21 [compound 98, (7S)-5-(3,4-Dichlorophenyl)-N-(5-fluoro-2-pyridyl)-7-methyl-4-oxo-6,7-dihydropyrazolo[1,5-a]pyrazine-3-carboxamide] | > 0.63 mg/kg | 
171.4 °C | 1.05e-08 M | 107% | Cc1cc(NC(=O)c2cnn3c2C(=O)N(c2ccc(Cl)cc2)C[C@@H]3C)ccn1 [compound 89] | > 2.5 mg/kg | 
224.9 °C | 8.32e-09 M | 113% | C[C@H]1CN(c2ccc(C(F)(F)F)cc2)C(=O)c2c(C(=O)Nc3ccncn3)cnn21 [compound 141] | > 2.5 mg/kg | 
178.1 °C | 3.55e-09 M | 112% | Cc1cc(NC(=O)c2cnn3c2C(=O)N(c2ccc(Cl)c(C)c2)C[C@@H]3C)cc(C)n1 [compound 160] | > 0.63 mg/kg | 
237.74 °C | 4.07e-08 M | 107% | C[C@H]1CN(c2ccc(C(F)(F)F)cc2)C(=O)c2c(C(=O)NC(=O)C3CCC3)cnn21 [compound 137, (7S)—N-(cyclobutanecarbonyl)-7-methyl-4-oxo-5-[4-(trifluoromethyl)phenyl]-6,7-dihydropyrazolo[1,5-a]pyrazine-3-carboxamide] |  | 
128.8 °C | 8.13e-07 M | 106% | C[C@H]1CN(c2ccc(C(F)(F)F)cc2)C(=O)c2c(C(=O)NCC3CCOCC3)cnn21 [compound 70] |  | 
217.7 °C | 1.7e-09 M | 103% | C[C@H]1CN(c2ccc(C(F)(F)F)cc2)C(=O)c2c(C(=O)Nc3cccc(S(C)(=O)=O)c3)cnn21 [compound 2] |  | 
